In ChEMBL document CHEMBL5724914, “Linking interpersonal differences in gut microbiota composition and drug biotransformation activity” (2024):

Conditions: human gut metagenome, 24 h, 2 µM
Further: call rule not given here.

Row | Bacterial Biotransformation | SMILES
1 | Compound NOT metabolized | CC1Cc2ccccc2N1NC(=O)c1ccc(Cl)c(S(N)(=O)=O)c1 (stereo not given) [INDAPAMIDE]
2 | Compound metabolized | COc1ccc2c(c1)c(CC(=O)O)c(C)n2C(=O)c1ccc(Cl)cc1 [INDOMETHACIN]
3 | Compound NOT metabolized | CC(CCc1ccccc1)NCC(O)c1ccc(O)c(C(N)=O)c1 (stereo not given) [LABETALOL]
4 | Compound NOT metabolized | Nc1nnc(-c2cccc(Cl)c2Cl)c(N)n1 [LAMOTRIGINE]

Assay: (§1) The drug is tested on Z-009 corresponding to pig gut metagenome with ENA study accession number: PRJEB37062 and ENA sample accession number: ERS12561809 for biotransformation under anaerobic condition. The drug concentrations were measured over 9 timepoints collected between 0 and 24 hours of incubation by liquid-chromatography-coupled mass spectrometry (LC–MS)
Conditions: 2 µM

Row | Bacterial Biotransformation | SMILES
5 | Compound NOT metabolized | CC1Cc2ccccc2N1NC(=O)c1ccc(Cl)c(S(N)(=O)=O)c1 (stereo not given) [INDAPAMIDE]
6 | Compound NOT metabolized | COc1ccc2c(c1)c(CC(=O)O)c(C)n2C(=O)c1ccc(Cl)cc1 [INDOMETHACIN]
7 | Compound NOT metabolized | CC(CCc1ccccc1)NCC(O)c1ccc(O)c(C(N)=O)c1 (stereo not given) [LABETALOL]
8 | Compound NOT metabolized | Nc1nnc(-c2cccc(Cl)c2Cl)c(N)n1 [LAMOTRIGINE]

Conditions: human gut metagenome, 24 h, 2 µM
Remark: another data set of the same source

Row | Bacterial Biotransformation | SMILES
9 | Compound NOT metabolized | CC1Cc2ccccc2N1NC(=O)c1ccc(Cl)c(S(N)(=O)=O)c1 (stereo not given) [INDAPAMIDE]
10 | Compound metabolized | COc1ccc2c(c1)c(CC(=O)O)c(C)n2C(=O)c1ccc(Cl)cc1 [INDOMETHACIN]
11 | Compound metabolized | CC(CCc1ccccc1)NCC(O)c1ccc(O)c(C(N)=O)c1 (stereo not given) [LABETALOL]
12 | Compound metabolized | Nc1nnc(-c2cccc(Cl)c2Cl)c(N)n1 [LAMOTRIGINE]

Conditions: human gut metagenome, 24 h, 2 µM
Remark: another data set of the same source

Row | Bacterial Biotransformation | SMILES
13 | Compound NOT metabolized | CC1Cc2ccccc2N1NC(=O)c1ccc(Cl)c(S(N)(=O)=O)c1 (stereo not given) [INDAPAMIDE]
14 | Compound metabolized | COc1ccc2c(c1)c(CC(=O)O)c(C)n2C(=O)c1ccc(Cl)cc1 [INDOMETHACIN]
15 | Compound NOT metabolized | CC(CCc1ccccc1)NCC(O)c1ccc(O)c(C(N)=O)c1 (stereo not given) [LABETALOL]
16 | Compound NOT metabolized | Nc1nnc(-c2cccc(Cl)c2Cl)c(N)n1 [LAMOTRIGINE]

Conditions: human gut metagenome, 24 h, 2 µM
Remark: another data set of the same source

Row | Bacterial Biotransformation | SMILES
17 | Compound NOT metabolized | CC1Cc2ccccc2N1NC(=O)c1ccc(Cl)c(S(N)(=O)=O)c1 (stereo not given) [INDAPAMIDE]
18 | Compound metabolized | COc1ccc2c(c1)c(CC(=O)O)c(C)n2C(=O)c1ccc(Cl)cc1 [INDOMETHACIN]
19 | Compound NOT metabolized | CC(CCc1ccccc1)NCC(O)c1ccc(O)c(C(N)=O)c1 (stereo not given) [LABETALOL]
20 | Compound NOT metabolized | Nc1nnc(-c2cccc(Cl)c2Cl)c(N)n1 [LAMOTRIGINE]

Conditions: human gut metagenome, 24 h, 2 µM
Remark: another data set of the same source

Row | Bacterial Biotransformation | SMILES
21 | Compound NOT metabolized | CC1Cc2ccccc2N1NC(=O)c1ccc(Cl)c(S(N)(=O)=O)c1 (stereo not given) [INDAPAMIDE]
22 | Compound metabolized | COc1ccc2c(c1)c(CC(=O)O)c(C)n2C(=O)c1ccc(Cl)cc1 [INDOMETHACIN]
23 | Compound metabolized | CC(CCc1ccccc1)NCC(O)c1ccc(O)c(C(N)=O)c1 (stereo not given) [LABETALOL]
24 | Compound NOT metabolized | Nc1nnc(-c2cccc(Cl)c2Cl)c(N)n1 [LAMOTRIGINE]

Assay: as §1, with “WLS-073” for “Z-009”, “human” for “pig”, “ERS12561749” for “ERS12561809”
Conditions: 2 µM

Row | Bacterial Biotransformation | SMILES
25 | Compound NOT metabolized | CC1Cc2ccccc2N1NC(=O)c1ccc(Cl)c(S(N)(=O)=O)c1 (stereo not given) [INDAPAMIDE]
26 | Compound metabolized | COc1ccc2c(c1)c(CC(=O)O)c(C)n2C(=O)c1ccc(Cl)cc1 [INDOMETHACIN]
27 | Compound NOT metabolized | CC(CCc1ccccc1)NCC(O)c1ccc(O)c(C(N)=O)c1 (stereo not given) [LABETALOL]
28 | Compound NOT metabolized | Nc1nnc(-c2cccc(Cl)c2Cl)c(N)n1 [LAMOTRIGINE]

Conditions: human gut metagenome, 24 h, 2 µM
Remark: another data set of the same source

Row | Bacterial Biotransformation | SMILES
29 | Compound NOT metabolized | CC1Cc2ccccc2N1NC(=O)c1ccc(Cl)c(S(N)(=O)=O)c1 (stereo not given) [INDAPAMIDE]
30 | Compound metabolized | COc1ccc2c(c1)c(CC(=O)O)c(C)n2C(=O)c1ccc(Cl)cc1 [INDOMETHACIN]
31 | Compound NOT metabolized | CC(CCc1ccccc1)NCC(O)c1ccc(O)c(C(N)=O)c1 (stereo not given) [LABETALOL]
32 | Compound NOT metabolized | Nc1nnc(-c2cccc(Cl)c2Cl)c(N)n1 [LAMOTRIGINE]

Assay: as §1, with “Z-022” for “Z-009”, “mouse” for “pig”, “ERS12561821” for “ERS12561809”
Conditions: 2 µM

Row | Bacterial Biotransformation | SMILES
33 | Compound NOT metabolized | CC1Cc2ccccc2N1NC(=O)c1ccc(Cl)c(S(N)(=O)=O)c1 (stereo not given) [INDAPAMIDE]
34 | Compound NOT metabolized | COc1ccc2c(c1)c(CC(=O)O)c(C)n2C(=O)c1ccc(Cl)cc1 [INDOMETHACIN]
35 | Compound metabolized | CC(CCc1ccccc1)NCC(O)c1ccc(O)c(C(N)=O)c1 (stereo not given) [LABETALOL]
36 | Compound NOT metabolized | Nc1nnc(-c2cccc(Cl)c2Cl)c(N)n1 [LAMOTRIGINE]

Assay: as §1, with “Z-006” for “Z-009”, “mouse” for “pig”, “ERS12561806” for “ERS12561809”
Conditions: 2 µM

Row | Bacterial Biotransformation | SMILES
37 | Compound NOT metabolized | CC1Cc2ccccc2N1NC(=O)c1ccc(Cl)c(S(N)(=O)=O)c1 (stereo not given) [INDAPAMIDE]
38 | Compound NOT metabolized | COc1ccc2c(c1)c(CC(=O)O)c(C)n2C(=O)c1ccc(Cl)cc1 [INDOMETHACIN]
39 | Compound NOT metabolized | CC(CCc1ccccc1)NCC(O)c1ccc(O)c(C(N)=O)c1 (stereo not given) [LABETALOL]
40 | Compound NOT metabolized | Nc1nnc(-c2cccc(Cl)c2Cl)c(N)n1 [LAMOTRIGINE]

Assay: as §1, with “Z-023” for “Z-009”, “to” for “to pig gut”, “ERS12561822” for “ERS12561809”
Conditions: 2 µM

Row | Bacterial Biotransformation | SMILES
41 | Compound NOT metabolized | CC1Cc2ccccc2N1NC(=O)c1ccc(Cl)c(S(N)(=O)=O)c1 (stereo not given) [INDAPAMIDE]
42 | Compound NOT metabolized | COc1ccc2c(c1)c(CC(=O)O)c(C)n2C(=O)c1ccc(Cl)cc1 [INDOMETHACIN]
43 | Compound metabolized | CC(CCc1ccccc1)NCC(O)c1ccc(O)c(C(N)=O)c1 (stereo not given) [LABETALOL]
44 | Compound NOT metabolized | Nc1nnc(-c2cccc(Cl)c2Cl)c(N)n1 [LAMOTRIGINE]

Assay: as §1, with “WLS-350” for “Z-009”, “human” for “pig”, “ERS12561789” for “ERS12561809”
Conditions: 2 µM

Row | Bacterial Biotransformation | SMILES
45 | Compound NOT metabolized | CC1Cc2ccccc2N1NC(=O)c1ccc(Cl)c(S(N)(=O)=O)c1 (stereo not given) [INDAPAMIDE]
46 | Compound metabolized | COc1ccc2c(c1)c(CC(=O)O)c(C)n2C(=O)c1ccc(Cl)cc1 [INDOMETHACIN]
47 | Compound NOT metabolized | CC(CCc1ccccc1)NCC(O)c1ccc(O)c(C(N)=O)c1 (stereo not given) [LABETALOL]
48 | Compound NOT metabolized | Nc1nnc(-c2cccc(Cl)c2Cl)c(N)n1 [LAMOTRIGINE]

Assay: as §1, with “Z-004” for “Z-009”, “to” for “to pig gut”, “ERS12561804” for “ERS12561809”
Conditions: 2 µM

Row | Bacterial Biotransformation | SMILES
49 | Compound NOT metabolized | CC1Cc2ccccc2N1NC(=O)c1ccc(Cl)c(S(N)(=O)=O)c1 (stereo not given) [INDAPAMIDE]
50 | Compound NOT metabolized | COc1ccc2c(c1)c(CC(=O)O)c(C)n2C(=O)c1ccc(Cl)cc1 [INDOMETHACIN]
51 | Compound NOT metabolized | CC(CCc1ccccc1)NCC(O)c1ccc(O)c(C(N)=O)c1 (stereo not given) [LABETALOL]
52 | Compound NOT metabolized | Nc1nnc(-c2cccc(Cl)c2Cl)c(N)n1 [LAMOTRIGINE]

Assay: as §1, with “Z-013” for “Z-009”, “rabbit” for “pig”, “ERS12561813” for “ERS12561809”
Conditions: 2 µM

Row | Bacterial Biotransformation | SMILES
53 | Compound NOT metabolized | CC1Cc2ccccc2N1NC(=O)c1ccc(Cl)c(S(N)(=O)=O)c1 (stereo not given) [INDAPAMIDE]
54 | Compound NOT metabolized | COc1ccc2c(c1)c(CC(=O)O)c(C)n2C(=O)c1ccc(Cl)cc1 [INDOMETHACIN]
55 | Compound NOT metabolized | CC(CCc1ccccc1)NCC(O)c1ccc(O)c(C(N)=O)c1 (stereo not given) [LABETALOL]
56 | Compound NOT metabolized | Nc1nnc(-c2cccc(Cl)c2Cl)c(N)n1 [LAMOTRIGINE]

Conditions: human gut metagenome, 24 h, 2 µM
Remark: another data set of the same source

Row | Bacterial Biotransformation | SMILES
57 | Compound NOT metabolized | CC1Cc2ccccc2N1NC(=O)c1ccc(Cl)c(S(N)(=O)=O)c1 (stereo not given) [INDAPAMIDE]
58 | Compound metabolized | COc1ccc2c(c1)c(CC(=O)O)c(C)n2C(=O)c1ccc(Cl)cc1 [INDOMETHACIN]
59 | Compound NOT metabolized | CC(CCc1ccccc1)NCC(O)c1ccc(O)c(C(N)=O)c1 (stereo not given) [LABETALOL]
60 | Compound NOT metabolized | Nc1nnc(-c2cccc(Cl)c2Cl)c(N)n1 [LAMOTRIGINE]

Assay: as §1, with “WLS-010” for “Z-009”, “human” for “pig”, “ERS12561743” for “ERS12561809”
Conditions: 2 µM

Row | Bacterial Biotransformation | SMILES
61 | Compound NOT metabolized | CC1Cc2ccccc2N1NC(=O)c1ccc(Cl)c(S(N)(=O)=O)c1 (stereo not given) [INDAPAMIDE]
62 | Compound metabolized | COc1ccc2c(c1)c(CC(=O)O)c(C)n2C(=O)c1ccc(Cl)cc1 [INDOMETHACIN]
63 | Compound NOT metabolized | CC(CCc1ccccc1)NCC(O)c1ccc(O)c(C(N)=O)c1 (stereo not given) [LABETALOL]
64 | Compound NOT metabolized | Nc1nnc(-c2cccc(Cl)c2Cl)c(N)n1 [LAMOTRIGINE]

Conditions: human gut metagenome, 24 h, 2 µM
Remark: another data set of the same source

Row | Bacterial Biotransformation | SMILES
65 | Compound NOT metabolized | CC1Cc2ccccc2N1NC(=O)c1ccc(Cl)c(S(N)(=O)=O)c1 (stereo not given) [INDAPAMIDE]
66 | Compound NOT metabolized | COc1ccc2c(c1)c(CC(=O)O)c(C)n2C(=O)c1ccc(Cl)cc1 [INDOMETHACIN]
67 | Compound NOT metabolized | CC(CCc1ccccc1)NCC(O)c1ccc(O)c(C(N)=O)c1 (stereo not given) [LABETALOL]
68 | Compound metabolized | Nc1nnc(-c2cccc(Cl)c2Cl)c(N)n1 [LAMOTRIGINE]

Assay: as §1, with “WLS-052” for “Z-009”, “human” for “pig”, “ERS12561747” for “ERS12561809”
Conditions: 2 µM

Row | Bacterial Biotransformation | SMILES
69 | Compound NOT metabolized | CC1Cc2ccccc2N1NC(=O)c1ccc(Cl)c(S(N)(=O)=O)c1 (stereo not given) [INDAPAMIDE]
70 | Compound metabolized | COc1ccc2c(c1)c(CC(=O)O)c(C)n2C(=O)c1ccc(Cl)cc1 [INDOMETHACIN]
71 | Compound NOT metabolized | CC(CCc1ccccc1)NCC(O)c1ccc(O)c(C(N)=O)c1 (stereo not given) [LABETALOL]
72 | Compound NOT metabolized | Nc1nnc(-c2cccc(Cl)c2Cl)c(N)n1 [LAMOTRIGINE]

Assay: as §1, with “Z-025” for “Z-009”, “rabbit” for “pig”, “ERS12561824” for “ERS12561809”
Conditions: 2 µM

Row | Bacterial Biotransformation | SMILES
73 | Compound NOT metabolized | CC1Cc2ccccc2N1NC(=O)c1ccc(Cl)c(S(N)(=O)=O)c1 (stereo not given) [INDAPAMIDE]
74 | Compound NOT metabolized | COc1ccc2c(c1)c(CC(=O)O)c(C)n2C(=O)c1ccc(Cl)cc1 [INDOMETHACIN]
75 | Compound metabolized | CC(CCc1ccccc1)NCC(O)c1ccc(O)c(C(N)=O)c1 (stereo not given) [LABETALOL]
76 | Compound NOT metabolized | Nc1nnc(-c2cccc(Cl)c2Cl)c(N)n1 [LAMOTRIGINE]

Assay: as §1, with “Z-007” for “Z-009”, “rat” for “pig”, “ERS12561807” for “ERS12561809”
Conditions: 2 µM

Row | Bacterial Biotransformation | SMILES
77 | Compound NOT metabolized | CC1Cc2ccccc2N1NC(=O)c1ccc(Cl)c(S(N)(=O)=O)c1 (stereo not given) [INDAPAMIDE]
78 | Compound NOT metabolized | COc1ccc2c(c1)c(CC(=O)O)c(C)n2C(=O)c1ccc(Cl)cc1 [INDOMETHACIN]
79 | Compound NOT metabolized | CC(CCc1ccccc1)NCC(O)c1ccc(O)c(C(N)=O)c1 (stereo not given) [LABETALOL]
80 | Compound NOT metabolized | Nc1nnc(-c2cccc(Cl)c2Cl)c(N)n1 [LAMOTRIGINE]
